In brackets after ≈: the same amount, converted by molar mass. Where two headings read alike, the source gives them in different places. Where a SMILES comes first, the peptide text is derived from it. [ ]: non-standard residue; d: D form. The star is where a group is joined. d(aIle) = CC[C@H](C)[C@@H](N)C(=O)O; X1 = CC[C@H](C)CCCCC(=O)*; dDab = NCC[C@@H](N)C(=O)O; Dab = NCC[C@H](N)C(=O)O
Key:
mammalian cell lines = conditions: cited from earlier work
[1] = 12 mg/kg every 2 h up to 12 h, total 72 mg/kg; cited from earlier work
in vitro [2] = conditions: rat, plasma, % Binding to Plasma Protein
Protocol: (§4) Plasma protein binding was assessed using the rapid equilibrium dialysis (RED) method, utilizing RED insert devices with a dialysis membrane featuring an 8,000 Dalton molecular weight cutoff for proteins. The test/control items in human, rat, and mouse plasma were prepared at a test concentration of 10 µM using 10 mM DMSO stocks, and the samples were added to the plasma chamber of the RED insert. The device was sealed with tape and incubated in a thermomixer at 37°C with shaking at 300 rpm for 4 h. Following incubation, a 50 µL aliquot of plasma and buffer was collected from each insert and diluted with an equal volume of the opposite matrix to mitigate matrix effects. The samples were quantified using LC-MS/MS analysis and were tested in duplicates.

in vitro [3] = conditions: human, plasma
Protocol: as §4

in vitro [4] = conditions: mouse, microsomes
Protocol: For without cofactors, 20 µL of PBS was added instead of pre-incubated cofactors. […] At each specified time, a 100 µL sample was taken, processed through a sample extraction procedure, and submitted for LC-MS/MS analysis ([35]). Half-life (t1/2) of test/control items was determined using the following equation
where, elimination rate constant (k) = −(slope of linear regression curve).

CYP3A4 = CYP3A4 (Homo sapiens, UniProt P08684); assay: CYP inhibition assay, recombinant isoform, fluorescence; format: biochemical
Protocol: (§1) The CYP inhibition assay was performed for test/control inhibitor items in duplicates using a 96-well fluorescence plate. An example of the preparation of CYP inhibition is given below in Table 8.
(§2) The plate with CYP master premix with test/control was incubated to allow the test/control samples to interact with CYP enzyme for 10 ± 1 min at 25°C under shaking conditions (400 rpm) using Thermomixer. The assay was initiated by adding 10 µL of a substrate and NADP^+ mixture to all wells, including a vehicle control and an assay blank. […] After incubation, the reaction was quenched by adding 50 µL of stop reagent (0.5 M Tris base) to each well.

CYP2D6 = CYP2D6 (Homo sapiens, UniProt P10635); assay: as above; format: biochemical
Protocol: as §1, §2

CYP2C19 = CYP2C19 (Homo sapiens, UniProt P33261); assay: as above; format: biochemical
Protocol: as §1, §2

K. pneumoniae = format: cell-based, Klebsiella pneumoniae
Protocol: (§3) The MIC for all isolates was determined using the broth microdilution method. This involved preparing CA-MHB medium and serially diluting antibiotic solutions by a factor of two. The test organism was adjusted to a concentration of ≈5 × 10^5 CFU/mL. In a sterile 96-well microtiter plate, 100 µL of CA-MHB, along with 100 µL of each antibiotic, was added, and serial dilutions were made. A 100 µL suspension of the organism was added to each well and mixed, resulting in a total reaction volume of 200 µL per well. The plate was then incubated at 37°C for 16–18 h. The MIC was identified as the lowest concentration of antibiotic that prevented any visible growth of the organism ([16]).

Salmonella typhimurium = format: cell-based
Protocol: The Salmonella typhimurium histidine-dependent engineered tester strains are allowed to incubate with S9 enzyme mix or PBS (without S9 set) for 30 min at 35°C. After incubation, the mixture was added to 2 mL of top agar tubes maintained at 46 ± 2°C and plated onto minimal glucose agar plates. After solidification, the plates are incubated at 37°C. Salmonella typhimurium auxotrophic mutants, if grown on minimal media, are counted as the number of revertant colonies due to the mutagenic potential of the compound tested. Positive controls, growth controls, and sterility checks are included during the experimentation for the sensitivity of the experiment ([38]).

[5] = concentrations well above its MIC; cited from earlier work
in vitro [6] = conditions: mouse, plasma, % Binding to Plasma Protein
Protocol: as §4

E. coli = format: cell-based, Escherichia coli
Protocol: as §3

CYP2C19, sequence (P33261 whole entry): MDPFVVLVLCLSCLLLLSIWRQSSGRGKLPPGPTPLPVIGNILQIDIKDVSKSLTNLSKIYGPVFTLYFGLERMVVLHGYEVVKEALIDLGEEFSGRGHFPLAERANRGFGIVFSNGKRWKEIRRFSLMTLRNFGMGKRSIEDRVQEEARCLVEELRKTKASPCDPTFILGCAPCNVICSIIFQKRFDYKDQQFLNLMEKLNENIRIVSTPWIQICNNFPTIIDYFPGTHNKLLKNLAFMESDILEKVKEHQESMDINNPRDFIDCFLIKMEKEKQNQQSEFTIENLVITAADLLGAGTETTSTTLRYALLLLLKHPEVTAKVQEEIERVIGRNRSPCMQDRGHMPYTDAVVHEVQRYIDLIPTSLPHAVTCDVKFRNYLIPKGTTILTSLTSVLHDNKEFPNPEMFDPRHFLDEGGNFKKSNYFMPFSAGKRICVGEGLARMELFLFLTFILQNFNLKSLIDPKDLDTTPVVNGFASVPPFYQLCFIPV
CYP2D6, sequence (P10635 whole entry): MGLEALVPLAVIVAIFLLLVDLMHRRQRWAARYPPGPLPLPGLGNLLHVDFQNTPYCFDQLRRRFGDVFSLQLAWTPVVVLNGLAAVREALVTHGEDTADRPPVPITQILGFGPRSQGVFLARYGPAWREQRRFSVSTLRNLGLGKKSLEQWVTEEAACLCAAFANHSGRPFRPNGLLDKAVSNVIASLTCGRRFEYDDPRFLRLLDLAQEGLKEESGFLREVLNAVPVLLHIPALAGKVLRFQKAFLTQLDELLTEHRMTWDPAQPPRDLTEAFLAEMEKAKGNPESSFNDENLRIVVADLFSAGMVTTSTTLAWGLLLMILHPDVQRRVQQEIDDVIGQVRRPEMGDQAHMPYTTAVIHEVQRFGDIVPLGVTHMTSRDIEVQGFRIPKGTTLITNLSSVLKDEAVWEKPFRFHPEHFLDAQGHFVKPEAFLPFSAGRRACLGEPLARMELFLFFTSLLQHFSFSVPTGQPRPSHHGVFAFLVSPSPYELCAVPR
CYP3A4, sequence (P08684 whole entry, canonical isoform): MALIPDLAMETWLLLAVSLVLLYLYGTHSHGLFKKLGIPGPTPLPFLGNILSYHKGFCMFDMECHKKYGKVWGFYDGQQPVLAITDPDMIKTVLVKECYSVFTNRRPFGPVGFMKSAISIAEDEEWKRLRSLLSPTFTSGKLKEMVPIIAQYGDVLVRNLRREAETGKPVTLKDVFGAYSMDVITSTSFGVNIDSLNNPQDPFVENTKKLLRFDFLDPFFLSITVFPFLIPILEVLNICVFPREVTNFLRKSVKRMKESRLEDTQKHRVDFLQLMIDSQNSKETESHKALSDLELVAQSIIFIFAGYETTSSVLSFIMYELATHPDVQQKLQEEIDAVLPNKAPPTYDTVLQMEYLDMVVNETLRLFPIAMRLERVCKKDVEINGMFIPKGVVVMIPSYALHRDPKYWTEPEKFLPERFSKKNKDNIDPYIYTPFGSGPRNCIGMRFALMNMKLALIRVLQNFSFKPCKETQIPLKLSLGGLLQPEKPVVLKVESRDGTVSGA

CC[C@H](C)CCCCC(=O)NCC(=O)N[C@H](CCN)C(=O)NCC(=O)N[C@H](CO)C(=O)N[C@H](Cc1c[nH]c2ccccc12)C(=O)N[C@@H](CO)C(=O)N[C@@H](CCN)C(=O)N[C@H](CCN)C(=O)N[C@H](C(=O)N[C@@H](CCC(=O)O)C(=O)N[C@H](C(=O)N[C@@H](C(=O)N[C@@H](CO)C(=O)O)[C@@H](C)CC)[C@@H](C)CC)[C@@H](C)CC [Tridecaptin M, tridecaptin M] (X1-G[dDab]G[dS][dW]S[Dab][dDab]IEI[d(aIle)]S-OH)
cytotoxicity (mammalian cell lines): non-cytotoxic | tolerance in acute toxicity study [1]: good tolerance | fraction unbound at 4 h, 10 µM (in vitro [2]): 0.465 | fraction unbound at 4 h, 10 µM (in vitro [3]): 0.227 | half-life (in vitro [4]; pH 7.4): > 2 h | remaining at 0.25 h (in vitro [4]; pH 7.4): 82.4% | remaining at 0.5 h (in vitro [4]; pH 7.4): 83.8% | remaining at 1 h (in vitro [4]; pH 7.4): 88.1% | remaining at 2 h (in vitro [4]; pH 7.4): 74.7% | microsomal CLint (in vitro [4]; pH 7.4, CL, mouse liver microsomes): < 11 µL/min/mg | IC50 (CYP3A4): > 30 µM | inhibition at 25 min, 0.01 µM (CYP3A4; human): < 0% | inhibition at 25 min, 0.03 µM (CYP3A4; human): < 0% | inhibition at 25 min, 0.1 µM (CYP3A4; human): < 0% | inhibition at 25 min, 0.3 µM (CYP3A4; human): < 0% | inhibition at 25 min, 1 µM (CYP3A4; human): 3.77% | inhibition at 25 min, 3 µM (CYP3A4; human): 9% | inhibition at 25 min, 10 µM (CYP3A4; human): 28% | inhibition at 25 min, 30 µM (CYP3A4; human): 26.6% | IC50 (CYP2D6): > 30 µM | inhibition at 25 min, 0.01 µM (CYP2D6; human): < 0% | inhibition at 25 min, 0.03 µM (CYP2D6; human): < 0% | inhibition at 25 min, 0.1 µM (CYP2D6; human): < 0% | inhibition at 25 min, 0.3 µM (CYP2D6; human): < 0% | inhibition at 25 min, 1 µM (CYP2D6; human): < 0% | inhibition at 25 min, 3 µM (CYP2D6; human): 1.28% | inhibition at 25 min, 10 µM (CYP2D6; human): 10.9% | inhibition at 25 min, 30 µM (CYP2D6; human): 13.1% | IC50 (CYP2C19): > 30 µM | inhibition at 25 min, 0.01 µM (CYP2C19; human): < 0% | inhibition at 25 min, 0.03 µM (CYP2C19; human): < 0% | inhibition at 25 min, 0.1 µM (CYP2C19; human): < 0% | inhibition at 25 min, 0.3 µM (CYP2C19; human): < 0% | inhibition at 25 min, 1 µM (CYP2C19; human): < 0% | inhibition at 25 min, 3 µM (CYP2C19; human): 0.13% | inhibition at 25 min, 10 µM (CYP2C19; human): 5.67% | inhibition at 25 min, 30 µM (CYP2C19; human): 11.7% | MIC (K. pneumoniae): 4 µg/mL (≈ 2.69 µM) | MIC90 (K. pneumoniae): 8 µg/mL (≈ 5.37 µM) | MIC range (K. pneumoniae): 2 to 8 µg/mL | MIC values (K. pneumoniae): 2 to 8 µg/mL | AMES test Remark (Salmonella typhimurium; 0.03 μg/plate): Mutagenic response not observed | AMES test TA98 (Salmonella typhimurium; 0.03 μg/plate): NC, NR | AMES test TA100 (Salmonella typhimurium; 0.03 μg/plate): NC, NR | AMES test TA102 (Salmonella typhimurium; 0.03 μg/plate): NC, NR | AMES test TA1535 (Salmonella typhimurium; 0.03 μg/plate): NC, NR | AMES test TA1537 (Salmonella typhimurium; 0.03 μg/plate): NC, NR | AMES test Remark (Salmonella typhimurium; 0.10 μg/plate): Mutagenic response not observed | AMES test TA98 (Salmonella typhimurium; 0.10 μg/plate): NC, NR | AMES test TA100 (Salmonella typhimurium; 0.10 μg/plate): NC, NR | AMES test TA102 (Salmonella typhimurium; 0.10 μg/plate): NC, NR | AMES test TA1535 (Salmonella typhimurium; 0.10 μg/plate): NC, NR | AMES test TA1537 (Salmonella typhimurium; 0.10 μg/plate): NC, NR | AMES test Remark (Salmonella typhimurium; 0.32 μg/plate): Mutagenic response not observed | AMES test TA98 (Salmonella typhimurium; 0.32 μg/plate): NC, NR | AMES test TA100 (Salmonella typhimurium; 0.32 μg/plate): NC, NR | AMES test TA102 (Salmonella typhimurium; 0.32 μg/plate): NC, NR | AMES test TA1535 (Salmonella typhimurium; 0.32 μg/plate): NC, NR | AMES test TA1537 (Salmonella typhimurium; 0.32 μg/plate): NC, NR | AMES test Remark (Salmonella typhimurium; 1.00 μg/plate): Mutagenic response not observed | AMES test TA98 (Salmonella typhimurium; 1.00 μg/plate): NC, NR | AMES test TA100 (Salmonella typhimurium; 1.00 μg/plate): NC, NR | AMES test TA102 (Salmonella typhimurium; 1.00 μg/plate): NC, NR | AMES test TA1535 (Salmonella typhimurium; 1.00 μg/plate): NC, NR | AMES test TA1537 (Salmonella typhimurium; 1.00 μg/plate): NC, NR | AMES test Remark (Salmonella typhimurium; 3.16 μg/plate): Mutagenic response not observed | AMES test TA98 (Salmonella typhimurium; 3.16 μg/plate): NC, NR | AMES test TA100 (Salmonella typhimurium; 3.16 μg/plate): NC, NR | AMES test TA102 (Salmonella typhimurium; 3.16 μg/plate): NC, NR | AMES test TA1535 (Salmonella typhimurium; 3.16 μg/plate): NC, NR | AMES test TA1537 (Salmonella typhimurium; 3.16 μg/plate): NC, NR | AMES test Remark (Salmonella typhimurium; 10 μg/plate): Cytotoxicity observed | AMES test TA98 (Salmonella typhimurium; 10 μg/plate): PI, RC | AMES test TA100 (Salmonella typhimurium; 10 μg/plate): PI, RC | AMES test TA102 (Salmonella typhimurium; 10 μg/plate): PI, RC | AMES test TA1535 (Salmonella typhimurium; 10 μg/plate): PI, RC | AMES test TA1537 (Salmonella typhimurium; 10 μg/plate): PI, RC | effect on Salmonella typhimurium tester strains (Salmonella typhimurium; 10 µg/plate and above): cytotoxic | mutagenic potential (Salmonella typhimurium; 3.16, 1.00, 0.32 and 0.10 µg/plate, presence and absence of S9): did not show any mutagenic potential | hemolysis [5]: non-hemolytic | fraction unbound at 4 h, 10 µM (in vitro [6]): 0.5 | MIC (E. coli): 4 µg/mL (≈ 2.69 µM) | MIC50 (E. coli): 4 µg/mL (≈ 2.69 µM) | MIC range (E. coli): 1 to 8 µg/mL | MIC values (E. coli): 2 to 8 µg/mL

From PMC12486805, “Preclinical evaluation of tridecaptin M: in vitro and in vivo efficacy against colistin-resistant Gram-negative bacterial pathogens and pharmacokinetics” (Antimicrobial Agents and Chemotherapy, 2025)
